Measured values published in patent publication US20230219961A1, “Pyridine acetamide derivative serving as CDK inhibitor, and preparation method therefor and use thereof” (Suzhou AlphaMa Biotechnology Co., Ltd., priority 2020, published 2023).

What was measured:
Mv4-11 cells = assay: Inhibition of the proliferation of Mv4-11 cells (CCK8); assay type: cell-based; conditions: Homo sapiens, MV4-11, 48 h
Description: The inhibition effect of the compounds of the present disclosure on the proliferation of Mv4-11 cells (ATCC:CRL-9591™) in vitro was determined by the following method:
1) Cell inoculation: Mv4-11 cells with good growing state in logarithmic growth phase were inoculated into a 96-well plate at 20000 cells per well and 50 uL, and cultured at 37° C. and under 5% CO2 condition for 2-4 h.
2) Administration: The compound was diluted with 1640 medium containing 10% FBS and 1% PS: 0.4 uL of the compound with an initial concentration of 1 mM was placed in a dilution plate, each added with 199.6 uL of the above culture medium, and gradiently diluted 4-fold, so that the final concentration in the added cell was 1000, 250, 62.5, 15.625, 3.91, 0.98, 0.24, 0.06 nM. 50 µL of the medium containing the compound was sequentially added, and it was placed in a 37° C., 5% CO2 cell incubator for 48 hours.
3) Detection: 10uL CCK8 (Dojindo, CK 04) solution was added to each well, incubated in 37° C. 5% CO2 cell incubator for 2 hours, and then the OD450 value was read by Synegry H1(BioTek) multimode microplate reader.
4) Calculation: The IC50 value was calculated using Graphpad prism 5.0 software according to the concentration of the compound and the corresponding signal value.

CDK7 = molecular target: T1, CDK7 (Homo sapiens, UniProt P50613); assay: Inhibitory effect on the kinase activity of CDK7 in vitro (Caliper); assay type: biochemical; conditions: 77 uM ATP, 0.2 ug/uL CTD3 peptide; read-out: CDK 7 IC50
T1 construct: purchased Eurofilns (sic; Eurofins) 14-476 M
Description: (§1) The detection of the inhibitory effect of the compounds of the present disclosure on the kinase activity of CDK7/CDK9 in vitro was determined by the following method:
(§2) 1) The compound was accurately weighed and dissolved in DMSO (Sigma, D2650) to a concentration of 100 mM for later use. The compound was diluted to 5-fold of a desired highest concentration, and diluted 4-fold into 6 concentration gradients, allowing the final concentration of the compound in the reaction system to be CDK7: 3000, 750, 188, 47, 12, 3 nM; CDK9: 100, 25, 6.25, 1.56, 0.39, 0.098 nM. 5 ul was taken to a 384-well plate (Corning, 4512).
(§3) 2) Kinase reaction: 10uL protein kinase (CDK7: Eurofilns,14-476 M; CDK9: Millipore,14-685 M) solution was added to the 384-well plate (Corning, 4512) containing the compound, and allowed to stand at room temperature for 10 min; a mixed solution of ATP(Sigma, A7699) and substrate polypeptide (CDK7: 77 uM ATP&0.2ug/uL CTD3 peptide (GL Biochem,SY356885); CDK9: 10 uM ATP&0.2 ug/uL CTD3 peptide (GL Biochem,SY356885)) was added, and allowed to stand at 28° C. for a short time; and then a stop solution was added to terminate the reaction at 25 uL per well.
(§4) 3) Detection: Data was collected by Caliper.
(§5) 4) Calculation: The IC50 value was calculated by Graphpad prism 5.0 software according to the concentration of the compound and the corresponding signal value.

CDK9 = molecular target: T2, CDK9 (Homo sapiens, UniProt P50750); assay: Inhibitory effect on the kinase activity of CDK9 in vitro (Caliper); assay type: biochemical; conditions: 10 uM ATP, 0.2 ug/uL CTD3 peptide; read-out: CDK 9 IC50
T2 construct: purchased Millipore 14-685 M
Description: as §1, §2, §3, §4, §5

RNA pol II Ser5 = assay: CDK7 signaling pathway in Mv4-11 cells: phosphorylation of RNA pol II Ser5 (SDS-PAGE/blot); assay type: cell-based; conditions: 6 hours, FIG. 1
Description: (§6) The inhibition effect of the compounds of the present disclosure on CDK7/CDK9 protein downstream RNA pol II Ser ⅖ in Mv4-11 cells in vitro was determined by the following method:
(§7) 1) Cell inoculation: Mv4-11 cells with good growing state in logarithmic growth phase were inoculated into a six-well plate with 2^∗10^5 cells/well, and cultured overnight at 37° C. and under 5% CO2 condition.
(§8) 2) Administration: The compound was diluted with 2 mL of 1640 medium containing 10% FBS and 1% PS. […] of the medium containing the compound was added to the overnight cultured cells, and it was placed in a 37° C., 5% CO2 cell incubator for 6 hours.
(§9) 3) Protein extraction and quantification: Cell suspension was collected and centrifuged at 1000 g for 5 min, the cell culturing medium was discarded, and PBS was added for resuspension and centrifugation; it was repeated three times, the residual liquid was sucked dry, 80 uL cell lysate was added per well, it was placed to ice, shaked for 10 min on a shaker and centrifuged at 12000 g for 5 min, and the supernatant, ie, the total protein solution, was collected; the protein concentration was tested by BCA.
(§10) 4) 12% SDS-PAGE electrophoresis was used to detect, after that trarsmembran was carried out at 100 V voltage for 3 h, blocking solution (Beyotime: P0235) was used to block for 15 min, TBST(Sangon Biotech: C520002) was used to wash the membrane three times, and the primary antibody (target protein CST:13499, internal reference Beyotime: AF1186) was incubated at 4° C. overnight; the membrane was washed with TBST three times; the secondary antibody (Beyotime: A0208) was incubated at room temperature for 1 hour; the membrane was washed with TBST three times; ECL (Tanon: 180-501) was used for exposure and coloration.

RNA pol II Ser2 = assay: CDK9 signaling pathway in Mv4-11 cells: phosphorylation of RNA pol II Ser2 (SDS-PAGE/blot); assay type: cell-based; conditions: 6 hours, FIG. 1
Description: as §6, §7, §8, §9, §10

T2 sequence (P50750 whole entry): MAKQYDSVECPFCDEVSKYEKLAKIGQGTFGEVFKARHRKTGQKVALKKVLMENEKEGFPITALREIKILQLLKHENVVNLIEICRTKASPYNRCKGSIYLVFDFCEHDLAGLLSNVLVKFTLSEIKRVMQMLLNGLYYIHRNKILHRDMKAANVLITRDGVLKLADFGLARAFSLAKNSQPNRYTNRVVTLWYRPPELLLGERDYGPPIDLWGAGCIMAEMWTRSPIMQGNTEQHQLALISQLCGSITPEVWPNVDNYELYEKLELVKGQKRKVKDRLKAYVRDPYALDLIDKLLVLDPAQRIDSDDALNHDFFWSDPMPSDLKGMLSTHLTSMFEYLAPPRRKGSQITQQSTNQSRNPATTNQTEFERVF
T2 sequence (O60563 whole entry partner): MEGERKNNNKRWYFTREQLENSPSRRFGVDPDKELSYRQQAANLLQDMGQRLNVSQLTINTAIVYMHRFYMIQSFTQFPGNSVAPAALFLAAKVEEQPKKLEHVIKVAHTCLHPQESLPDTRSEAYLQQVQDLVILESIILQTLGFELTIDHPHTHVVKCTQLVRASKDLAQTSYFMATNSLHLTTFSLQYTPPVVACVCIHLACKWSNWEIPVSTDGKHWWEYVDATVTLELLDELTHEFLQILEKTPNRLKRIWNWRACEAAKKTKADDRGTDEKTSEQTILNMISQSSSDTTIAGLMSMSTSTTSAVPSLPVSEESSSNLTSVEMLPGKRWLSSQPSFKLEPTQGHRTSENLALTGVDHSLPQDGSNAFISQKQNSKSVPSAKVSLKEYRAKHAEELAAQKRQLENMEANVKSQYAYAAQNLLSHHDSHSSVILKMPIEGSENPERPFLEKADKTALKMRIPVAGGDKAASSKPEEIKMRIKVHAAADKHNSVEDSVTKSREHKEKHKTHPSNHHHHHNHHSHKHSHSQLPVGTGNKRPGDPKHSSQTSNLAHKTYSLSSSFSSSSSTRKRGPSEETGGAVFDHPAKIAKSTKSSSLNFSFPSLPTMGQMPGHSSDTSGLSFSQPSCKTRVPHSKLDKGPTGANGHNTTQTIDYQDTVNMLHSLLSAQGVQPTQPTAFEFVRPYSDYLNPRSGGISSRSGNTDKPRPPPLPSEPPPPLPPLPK
T1 sequence (P50613 whole entry): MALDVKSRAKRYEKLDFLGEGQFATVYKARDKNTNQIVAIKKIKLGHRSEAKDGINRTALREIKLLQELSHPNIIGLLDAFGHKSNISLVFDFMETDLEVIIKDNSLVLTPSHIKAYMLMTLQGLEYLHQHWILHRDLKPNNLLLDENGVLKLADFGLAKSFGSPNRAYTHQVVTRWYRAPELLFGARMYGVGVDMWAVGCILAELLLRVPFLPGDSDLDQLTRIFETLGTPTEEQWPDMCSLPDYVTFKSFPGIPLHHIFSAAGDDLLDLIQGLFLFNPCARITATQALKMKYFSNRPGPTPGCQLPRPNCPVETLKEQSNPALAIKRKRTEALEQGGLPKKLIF
T1 sequence (P51946 whole entry partner): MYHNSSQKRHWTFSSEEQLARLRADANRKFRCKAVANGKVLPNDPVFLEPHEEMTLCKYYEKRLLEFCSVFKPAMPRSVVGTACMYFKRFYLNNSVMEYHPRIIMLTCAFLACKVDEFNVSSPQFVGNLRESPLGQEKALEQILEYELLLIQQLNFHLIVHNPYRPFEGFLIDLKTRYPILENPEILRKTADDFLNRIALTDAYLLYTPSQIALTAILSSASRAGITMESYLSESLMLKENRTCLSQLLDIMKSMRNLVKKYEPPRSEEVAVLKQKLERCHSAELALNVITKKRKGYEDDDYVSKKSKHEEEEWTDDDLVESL
T1 sequence (P51948 whole entry partner): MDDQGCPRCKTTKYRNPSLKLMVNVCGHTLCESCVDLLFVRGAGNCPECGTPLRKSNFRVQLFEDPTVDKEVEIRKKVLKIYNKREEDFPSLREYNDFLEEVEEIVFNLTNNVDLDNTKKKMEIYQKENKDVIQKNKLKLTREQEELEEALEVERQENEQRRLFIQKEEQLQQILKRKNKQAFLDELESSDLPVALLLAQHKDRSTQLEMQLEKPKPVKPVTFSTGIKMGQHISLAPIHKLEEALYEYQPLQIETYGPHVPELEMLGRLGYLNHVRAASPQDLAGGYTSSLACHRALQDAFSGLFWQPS

Compound	IC50 (Mv4-11 cells) [nM]	IC50 (CDK7) [nM]	IC50 (CDK9) [nM]	inhibitory effect on the phosphorylation of the CDK7 protein downstream RNA pol II Ser5 (RNA pol II Ser5)	inhibitory effect on the phosphorylation of CDK9 protein downstream RNA pol II Ser2 (RNA pol II Ser2)
C[C@@H](C(=O)Nc1cc(-c2cnn3c2CC(C)(C)C3)c(Cl)cn1)c1cccc(C#N)n1 [Compound 13-2, (R)-N-(5-chloro-4-(5,5-dimethyl-5,6-dihydro-4H-pyrrolo[1,2-b]pyrazol-3-yl)pyridin-2-yl)-2-(6-cyanopyridin-2-yl)propionamide (assumed)]	4.8	328	3	significant inhibitory effect	
C[C@H](C(=O)Nc1cc(-c2cnn3c2CC(C)(C)C3)c(Cl)cn1)c1cccc(C#N)n1 [Compound 13-1, (S)-N-(5-chloro-4-(5,5-dimethyl-5,6-dihydro-4H-pyrrolo[1,2-b]pyrazol-3-yl)pyridin-2-yl)-2-(6-cyanopyridin-2-yl)propionamide (assumed)]	148		44.4		significant inhibitory effect
C[C@@H](C(=O)Nc1cc(-c2cnn3c2CC(C)(C)C3)c(Cl)cn1)c1cccnc1 [Compound 11-2, (R)-N-(5-chloro-4-(5,5-dimethyl-5,6-dihydro-4H-pyrrolo[1,2-b]pyrazol-3-yl)pyridin-2-yl)-2-(pyridin-3-yl)propionamide (assumed)]	13		2.9	significant inhibitory effect	significant inhibitory effect

The next compounds have a lower IC50 (Mv4-11 cells) than those just listed; values first:

IC50 (Mv4-11 cells) [nM]	IC50 (CDK7) [nM]	IC50 (CDK9) [nM]	Compound	inhibitory effect on the phosphorylation of the CDK7 protein downstream RNA pol II Ser5 (RNA pol II Ser5)	inhibitory effect on the phosphorylation of CDK9 protein downstream RNA pol II Ser2 (RNA pol II Ser2)
3.9	103	4	CNC(=O)c1cccc(CC(=O)Nc2cc(-c3cnn4c3CC(C)(C)C4)c(Cl)cn2)c1 [Compound 3, 3-(2-((5-chloro-4-(5,5-dimethyl-5,6-dihydro-4H-pyrrolo[1,2-b]pyrazol-3-yl)pyridin-2-yl)amino)-2-oxoethyl)-N-methylbenzamide]	significant inhibitory effect	
1.6	19	2.7	C[C@@H](C(=O)Nc1cc(-c2cnn3c2CC(C)(C)C3)c(Cl)cn1)c1cccc(C(N)=O)c1 [Compound 2-2, (R)-3-(1-((5-chloro-4-(5,5-dimethyl-5,6-di hydro-4H-pyrrolo[1,2-b]pyrazol-3-yl)pyridin-2-yl)amino)-1-oxopropan-2-yl)benzamide (assumed)]	significant inhibitory effect	significant inhibitory effect
